Measurements from PubChem BioAssay (NCI).
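Here, GI50 denotes the concentration required for 50% inhibition of growth. TGI: total growth inhibition.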

Legend:
Test in all cases: NCI-60 cell line screen, 384-well format
OVCAR-5 ovarian = tested on: OVCAR-5 ovarian
SR leukemia = tested on: SR leukemia
U251 glioblastoma = tested on: U251 glioblastoma
SF-268 CNS = tested on: SF-268 CNS
HOP-92 NSCLC = tested on: HOP-92 NSCLC
SK-OV-3 ovarian = tested on: SK-OV-3 ovarian
M14 melanoma = tested on: M14 melanoma
UACC-62 melanoma = tested on: UACC-62 melanoma
SK-MEL-5 melanoma = tested on: SK-MEL-5 melanoma
SNB-19 CNS = tested on: SNB-19 CNS
HS 578T breast = tested on: HS 578T breast
MOLT-4 leukemia = tested on: MOLT-4 leukemia
OVCAR-3 ovarian = tested on: OVCAR-3 ovarian

Row | Compound | GI50 (OVCAR-5 ovarian) [µM] | TGI (OVCAR-5 ovarian) [µM] | GI50 (SR leukemia) [µM] | TGI (SR leukemia) [µM] | GI50 (U251 glioblastoma) [µM] | TGI (U251 glioblastoma) [µM] | GI50 (SF-268 CNS) [µM] | TGI (SF-268 CNS) [µM] | GI50 (HOP-92 NSCLC) [µM] | TGI (HOP-92 NSCLC) [µM] | GI50 (SK-OV-3 ovarian) [µM] | TGI (SK-OV-3 ovarian) [µM] | GI50 (M14 melanoma) [µM] | TGI (M14 melanoma) [µM] | GI50 (UACC-62 melanoma) [µM] | TGI (UACC-62 melanoma) [µM] | GI50 (SK-MEL-5 melanoma) [µM] | TGI (SK-MEL-5 melanoma) [µM] | GI50 (SNB-19 CNS) [µM] | TGI (SNB-19 CNS) [µM] | other results
1 | NS(=O)(=O)NCCNc1nonc1C(=Nc1ccc(F)c(Br)c1)NO | 49.9 | > 100 | 14.6 | 28.9 | 33.9 | > 100 | 33.9 | > 100 | 29.6 | > 89.5 | 10.9 | > 100 | 38.9 | > 100 | 24.5 | > 100 | 35.9 | > 92.6 | 42.1 | > 100 | GI50 (HS 578T breast): 25.3 µM; TGI (HS 578T breast): 87.4 µM; GI50 (MOLT-4 leukemia): 15.9 µM; TGI (MOLT-4 leukemia): 29.8 µM; GI50 (OVCAR-3 ovarian): 24 µM; TGI (OVCAR-3 ovarian): 76.8 µM
2 | CC1(N)CCN(c2cnc(-c3cccc(Cl)c3Cl)c(N)n2)CC1 | 15.7 | 47.6 | 7.14 | 20.3 | 13.5 | 27.4 | 18.6 | 53.4 | 1.02 | 8.17 | 10.2 | 24.9 | 17.6 | 31.5 | 18.7 | 32.9 | 15.3 | 28.7 | 11.9 | > 74.3 | GI50 (HS 578T breast): 13.4 µM; TGI (HS 578T breast): 27.2 µM; GI50 (MOLT-4 leukemia): 16.3 µM; TGI (MOLT-4 leukemia): 30.7 µM; GI50 (OVCAR-3 ovarian): 13.6 µM; TGI (OVCAR-3 ovarian): 45.3 µM
